From patent US20240299334A1, “PHARMACEUTICAL COMPOSITION OF NAPHTHALENE DERIVATIVES AS MULTI-TARGETED THERAPEUTIC AGENTS FOR THE TREATMENT OF ALZHEIMER'S DISEASE” (CENTRO DE NEUROCIENCIAS DE CUBA, CNEURO, priority 2020, published 2024)

Key:
[1] = system: memory loss induced by an acute administration of scopolamine (ESC); assay: Y-maze, short-term spatial memory, acute scopolamine (ESC) model; format: in vivo, mice
Experimental: Young male OF-1 mice (20-25 g), supplied by the National Center for the Laboratory Animals Production (CENPALAB, Cuba), were used. Before the experiment, the animals were adapted for seven days to laboratory conditions (controlled temperature 25±2° C., relative humidity 60±10% and light/dark cycles of 12 h). During this period, and during the experiment, the animals received ad libitum water and a standard diet for rodents supplied by CENPALAB. All procedures were carried out in accordance with the European Commission guidelines for the use and care of laboratory animals and approved by the Committee for the Care of Research Animals. The minimum number of animals and duration of observations required to obtain consistent data was used.
At the end of the adaptation period, the animals were randomly distributed according to their body weights in 5 experimental groups of 12 animals per group. Scopolamine hydrobromohydrate (ESC, Sigma Aldrich) was used to induce cognitive deficit, which was dissolved in physiological saline and administered intraperitoneally (ip) at a dose of 1.5 mg/kg, 30 minutes before the test (Miranda H F et al. in. J. Biomed. Sci., 2014 21 (1): 62-62). The doses of compound 3 used were 0.1, 1, 10 and 20 mg/kg of body weight. The compound was formulated using carboxymethyl cellulose (CMC). The administration scheme was designed as follows:
Group 1 (negative control) with normal cognitive function. Two administrations with an interval of 30 minutes with vehicle (5% CMC) by oral route and saline solution by i.p. route, respectively.
Group 2 (positive control) with cognitive dysfunction. Two administrations with an interval of 30 minutes, the first with vehicle (5% CMC), the second with ESC 1 mg/kg.
Group 3, 4, 5 and 6 treated with 3 (0.1, 1, 10 and 20 mg/kg). Two administrations with an interval of 30 minutes, the first with 3 at the dose corresponding to each group, the second with ESC 1 mg/kg. The behavioral evaluation was carried out 30 minutes after this second administration.
The study of short-term spatial memory was carried out through the study of novel spatial preference, using the Y-maze behavioral paradigm (40 cm long×9 cm wide×16 cm high) with extra-labyrinthine tracks around of the maze. The test consisted of two trials separated by an interval of 2 hours. In the first training test (acquisition), the mice were placed in the center of the maze and facing the end of one of the arms whose selection was random. After being positioned, they were allowed to explore the maze for 10 minutes with one of the arms closed (novel arm). At the end of this test, the mice were returned to their original cage until the second test (recovery), during which they could freely explore the three arms of the maze for 5 minutes. The total residence time (exploration) in each arm was measured and analyzed from video recordings. The entrance to the arm was defined as the entrance of the four legs of the animal in said arm. The residence time (sec) in each arm during the recovery test of the learned task was used for the statistical analysis. The maze was cleaned with 70% ethanol between runs. All mice were transported to the behavioral testing room in their home cages at least 1 day prior to testing. The experiments were carried out between 8:00 am and 12:30 pm.
All data are expressed as the mean±standard error of the mean (SEM). The Morris water maze data was analyzed in two ways. Escape latencies in the visible platform training phase were analyzed using a two-factor ANOVA (treatment×trial). For the study of long-term memory, the last escape latency value of the training phase with the visible platform (D1 V4) and the first value of the test with the hidden platform performed 24 h later (D2T1) were used. Mice with intact long-term memory capacity should quickly reach the hidden platform in the first test. A scoring system was generated with the difference D2T1−D1 V4 and with the ratio D2T1/D1V4. […]

[2] = system: mitochondria isolated from rat liver; assay: Mitochondrial swelling induced by Ca2+ and Pi (absorbance 540 nm); format: biochemical; details: induced by 50 μmol/L Ca2+ and 2 mmol/L Pi; similar concentrations (0.1-100 μmol/L)
Excerpt: In this case, it was observed that in the control group (in the presence of Ca^2+) the maximum absorbance values are shown, as a measure of maximum swelling. […] These effects correspond to the observed effects on the dissipation of the mitochondria membrane potential.
Isolation of rat mitochondria: Mitochondria were isolated by the classical method of differential centrifugation from the liver of male Wistar rats (Mirandola S R, et al., in J Neurosci Res 2010; 88: 630-39). […]
(§1) Mitochondrial membrane potential and ROS were determined by spectrophotometry, using as fluorescent probes, respectively, safranin (10 μmol/L) (Zanotti A., and Azzone G F in Archives of Biochemistry and Biophysics 1980, 201 (1), 255-265) and Amplex Red (Molecular Probes, OR, Eugene) in the presence of horseradish peroxidase (1 IU/mL) (Votyakova and Reynolds, in J Neurochem. 2001, 79 (2), 266-77). Measurements were made in a Hitachi fluorescence spectrophotometer, model F-4500 (Tokyo, Japan) at λexc 495/λem 586 nm (safranin) and at λexc 563/λem 587 nm (Amplex Red). […]
Data analysis: In all cases, the normal distribution and homogeneity of variances of the data were evaluated using the Kolmogorov Smirnov and Levene tests, respectively. […]

[3] = system: mitochondria isolated from rat liver; assay: Production of H2O2 / reactive oxygen species (Amplex Red) in isolated mitochondria; format: biochemical; details: dose range tested (0.1-100 μmol/L)
Experimental: Isolation of rat mitochondria: Mitochondria were isolated by the classical method of differential centrifugation from the liver of male Wistar rats (Mirandola S R, et al., in J Neurosci Res 2010; 88: 630-39).
Incubation procedures: Mitochondria were energized with 5 mmol/L potassium succinate (plus 2.5 μmol/L rotenone) in standard incubation medium containing 125 mmol/L sucrose, 65 mmol/L KCl and 10 mmol/L of HEPES-KOH, pH 7.4, at 30° C.
as §1, with “Red). These experiments were carried out in the presence of 0.1 mmol/L of EGTA and the evaluated compound was N-[4-(1-naphthylamino)-4-oxobutanoyl]-β-alanine (1) in a concentration range of 0.1 to 100 μmol/L. Mitochondrial swelling was estimated spectrophotometrically from the decrease in absorbance at 540 nm, using a Hitachi spectrophotometer, Model U-2910 (Japan).” for “Red).”

Compound: CN1[C@@H]2C[C@@H](OC(=O)[C@H](CO)c3ccccc3)C[C@H]1[C@@H]1O[C@@H]12 [ESC, Scopolamine hydrobromohydrate, reference compound]
- residence time in the novel arm ([1]; ESC group (control group 133.8±9.3 sec), p<0.001): 98.8 ± 4.2 s

Compound: O=C(O)CCNC(=O)CCC(=O)Nc1cccc2ccccc12 [compound 1, N-[4-(1-naphthylamino)-4-oxobutanoyl]-β-alanine]
- mitochondrial swelling (absorbance at 540 nm) [2]: reverses the effect of Ca^2+-induced swelling
- production of hydrogen peroxide (H2O2) [3]: protects against H2O2 production

Compound: COc1cc2c(cc1OC)C(=O)C(CC1CCN(Cc3ccccc3)CC1)C2 (centres unmarked) [donepezil, reference compound]
- deficit induced by ESC in Y-maze ([1]; donepezil 1 mg/kg, ip, 30 minutes before the test): also reversed the deficit induced by ESC
- residence time in the novel arm ([1]; donepezil group vs ESC): significantly longer than that of ESC
